Results taken from PubChem BioAssay (NCI).
Several values for one entry are separate records, joined by “and”; a condition that tells them apart may be missing. Equal values may be shown once.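 48-hour exposure; five concentrations; linearly interpolated endpoints. The concentration for 50% growth inhibition is given as GI50. TGI is the concentration that stops growth completely.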

Experiments:
Assay in all cases: NCI-60 cell line screen, 48 h
[1] = system: A549 NSCLC
[2] = system: CAKI-1 renal
[3] = system: HT29 colon
[4] = system: SK-MEL-2 melanoma
[5] = system: SK-OV-3 ovarian
[6] = system: SR leukemia
[7] = system: TK-10 renal
[8] = system: MDA-MB-435
[9] = system: PC-3 prostate
[10] = system: BT-549 breast

| SMILES | TGI [1] | TGI [2] | TGI [3] | TGI [4] | TGI [5] | TGI [6] [µM] | TGI [7] | GI50 [1] [µM] | GI50 [2] | GI50 [3] [µM] | GI50 [8] | TGI [8] | GI50 [9] [µM] | TGI [9] [µM] | GI50 [4] [µM] | GI50 [5] [µM] | GI50 [6] [µM] | GI50 [7] [µM] | GI50 [10] [µM] | TGI [10] |
| --- | --- | --- | --- | --- | --- | --- | --- | --- | --- | --- | --- | --- | --- | --- | --- | --- | --- | --- | --- | --- |
| CC(C)=CC(=O)Cc1nc2ccccc2[nH]c1=O | > 100 µM | > 100 µM | > 100 µM | > 100 µM | > 100 µM | > 100 | > 100 µM |  |  |  |  |  |  |  |  |  |  |  |  |  |
| O=S(=O)(O)C(F)(F)C(F)(F)C(F)(F)C(F)(F)F | > 100 µM | > 100 µM | > 100 µM | > 100 µM | > 100 µM |  | > 100 µM |  |  |  |  |  |  |  |  |  |  |  |  |  |
| CCN=C1NN=C(c2ccccc2)c2cc(Cl)ccc2N1 | > 100 µM | 36.9 µM | 32.3 µM | 32.8 µM | 68.7 µM |  | 62.7 µM |  |  |  |  |  |  |  |  |  |  |  |  |  |
| CCNC(=O)C(O)C1(O)CCC2[C@@H]3CCC4=CC(=O)C=C[C@]4(C)C3[C@@H](O)C[C@@]21C (stereo partly drawn) | > 100 µM | > 100 µM | > 100 µM | > 100 µM | > 100 µM | > 100 | > 100 µM |  |  |  |  |  |  |  |  |  |  |  |  |  |
| CCCCCCn1c(-c2ccc(C(=O)O/N=C(\N)c3ccc(OC)cc3)cc2)nc(-c2ccccc2)c1-c1ccccc1 | 3.36 µM | 2.19 µM | > 100 µM | 9.46 µM | > 100 µM | 0.528 | 3.31 µM | 0.777 | 0.997 µM | 2.67 | 1.66 µM | 3.2 µM | 1.67 | 4.16 | 2.93 | 4.45 | 0.196 | 1.72 |  |  |
| COc1ccc(-c2ccc(/C=N/n3cn[nH]c3=S)o2)c([N+](=O)[O-])c1 | > 100 µM | > 100 µM | > 100 µM |  | > 100 µM |  | 86.6 µM | 36.2 | 32.6 µM | 32.6 | 19.8 µM | 44.8 µM | 35.7 | > 100 |  | 45.5 |  | 18 | 30.1 | > 100 µM |
| COc1ccccc1NC(=O)CC(=O)n1nc(C)c(N=Nc2ccccc2F)c1C | > 100 µM | > 100 µM | > 100 µM | > 100 µM | 83.6 µM | > 100 | > 100 µM |  |  |  |  |  |  |  |  |  |  |  |  |  |
| CNC(=O)c1cc(Oc2ccc3nc(NC(=O)Nc4ccc(Cl)c(Cl)c4)sc3c2)ccn1 |  | 6.3 µM |  | 5.97 µM | 4.09 µM | > 100 | 9.26 µM |  | 2.46 µM |  | 2.02 µM | 4.62 µM |  |  | 2.56 | 2.24 | 6.47 | 3.46 | 4.88 | > 100 µM |
| CCCOc1ccc(/C=C\c2cc(OC)c(OC)c(OC)c2)cc1 | > 100 µM | > 100 µM | > 100 µM |  |  |  | > 100 µM |  |  |  |  |  |  |  |  |  |  |  |  |  |
| N#CCCc1nc2ccc(Br)cc2c(=O)n1-c1ccc(O)c([N+](=O)[O-])c1 | > 100 µM | 92.6 µM | > 100 µM | 34.7 µM | 85.2 µM |  | > 100 µM |  |  |  |  |  |  |  |  |  |  |  |  |  |
| CCCCCCC(C)CC(CCCCCC)NCCOC(=O)c1ccc([N+](=O)[O-])cc1 (stereo not drawn) | 30.3 µM and 29.8 µM | 25.3 µM and 18.4 µM | 21.4 µM and 19 µM | 30.7 µM and 28.6 µM | 31.8 µM and 30.4 µM |  | 24.5 µM and 23.4 µM |  | 12.2 µM and 4.21 µM |  | 11.6 µM and 5.17 µM | 24.9 µM and 20.1 µM |  |  |  |  |  |  |  | 31.6 µM and 30.5 µM |
| COC(=O)c1c/c(=N\NC(=O)CC(=O)Nc2ccccc2Cl)c2ccccc2o1 | > 100 µM | > 100 µM | > 100 µM | > 100 µM | > 100 µM | > 100 | > 100 µM |  |  |  |  |  |  |  |  |  |  |  |  |  |
| COc1ccc(Cl)cc1N1C(=O)C(Cl)=C(Nc2cccc(O)c2)C1=O | 59.2 µM | 55.2 µM | 59.9 µM |  | > 100 µM | 54.5 | 31.9 µM | 20.1 | 19.2 µM | 19.9 | 24.6 µM | 62.8 µM | 17.8 | 38.6 |  | 34.2 | 13.8 | 11.3 | 11.8 | 46.2 µM |
| CCCCCCCCCCCCCCCC(=O)NC1CCc2cc(O)c(O)c(O)c2-c2ccc(SC)c(=O)cc21 (stereo not drawn) | 15.5 µM | 27.2 µM | 27.8 µM |  | 29.5 µM | > 31 | 30.2 µM |  |  |  |  |  |  |  |  |  |  |  |  |  |
| O=C(CNC(=O)c1cccc2ccccc12)Nc1ccccc1Oc1cccc(O)c1 | > 25 µM |  | > 25 µM |  | > 25 µM | > 25 | > 25 µM | 9.64 |  | 21.4 | 0.755 µM | 3.07 µM | 7.13 | > 25 |  | 13 | 1.05 | > 25 | > 25 | > 25 µM |
| COc1ncnc2c(NC3OC(CO)C(O)C3O)ncnc12 (stereo not drawn) |  | 6.3 µM | > 32 µM | > 100 µM | > 27.1 µM | 0.276 | 5.97 µM |  |  |  |  | > 100 µM |  | 12.6 |  |  |  |  |  |  |
| O=[N+]([O-])c1ccc(Cc2nc3ccccc3s2)cc1 | > 100 µM | > 100 µM | > 100 µM | > 100 µM | > 100 µM | > 100 | > 100 µM |  |  |  |  |  |  |  |  |  |  |  |  |  |
| C=CCOc1cc2c(cc1C(C)c1ccc(OC)cc1)OCO2 (stereo not drawn) | > 100 µM | > 100 µM | 2.26 µM | > 100 µM |  | 0.695 | > 100 µM |  |  |  |  | 1.91 µM |  | > 100 |  |  |  |  |  |  |
| CC1(C)CCSC(/C=C/c2ccccc2)=N1 | > 100 µM | 32.3 µM | 33.1 µM | 28.8 µM | > 100 µM |  | 32.6 µM |  |  |  |  | 32.6 µM |  | 30.5 |  |  |  |  |  | 22 µM |
| COC(=O)Nc1ccc2ccc3c(NC(=O)OC)ccc4ccc1c2c43 (tested in a mixture with another compound) | > 50 µM | 27.4 µM | > 50 µM | > 50 µM | > 50 µM | > 50 | > 50 µM | 7.78 | 6.44 µM | 4.31 |  |  | 6.89 | 26 | 25.6 | 11.6 | 2.51 | 16.9 | 5.5 | 14 µM |
